The source of these data is US4803221A, “Anthracene derivatives” (priority 1987, dated 1989).

Counter-ions that a name gives are not always drawn. Like-named read-outs stand apart in the source and are kept apart here. A value given as a limit tells only on which side of the number the result lay.

For data set [1], the system named is Herpes simplex 1/vero. The experiment in a line: Herpes simplex 1/vero plaque inhibition screen. Type of data set: cell-based. Conditions: for Zone of Inhibition: plaque inhibition screen. The text has this: The column headings labeled Score, Toxicity, and Zone of Inhibition refer to the plaque inhibition screen while the IC50 heading to the plaque reduction screen.

In data set [2] the test system is Nippostrongylus brasiliensis. The experiment in a line: Anthelmintic screening against Nippostrongylus brasiliensis. The class given is cell-based. An excerpt: Anthelmintic testing against Nippostrongylus brasiliensis was done using methods outlined in D. C. Jenkins, R. Armitage, and T. S. Carrington, Zeitschrift for Parasitenkunde 63, 261-269 (1980)
Data set [3] in a line: Antibacterial screening against Mycoplasma smegmatis. The class given is cell-based. An excerpt:
(§1) Antibacterial test against Mycoplasma smegmatis (S3264) and Streptococcus pyogenes (CN10) was done with slight modifications using standard agar dilution assays as outlined in Manual of Clinical Microbiology Second Ed., E. H. Lennette, E. H. Spaulding and J. P. Truant Eds., American Society for Microbiology, Washington, DC, 1974.

In data set [4] the test system is lymphocytic leukemia P388/0. In words: Lymphocytic Leukemia P388/0 Test. More on the design: LD20: unit: mg/kg. Conditions: ip days 1, 5, 9; for LD20: doses on a mg/kg basis; for T/C × 100% (Excluding 30 Day Survivors): median survival time treated/control, at the optimal dose of the compound (Table I), active if ≥120%. Type of data set: in vivo, mouse (CD2-F1). The text has this:
(§2) Methods for evaluating the antitumor activity of these compounds are essentially those used in the Tumor Panel by the Developmental Therapeutics Program, Division of Cancer Treatment, National Cancer Institute, A. Goldin, et al., Methods in Cancer Research, Vol. XVI, p.165, Academic Press (1979). Some modifications, in dose level and schedule have been made to increase the testing efficiency.
(§3) CD2-F1 mice, of the same sex, weighing 20±3 g are used for this test. Control and test animals are injected intraperitoneally with a suspension of ~10^6 viable P388/0 tumor cells on day 0. In each test, several dose levels which bracket the LD20 of the compound are evaluated; each dose level group contains six animals. The test compounds are prepared either in physiologic saline containing 0.05% Tween 80 or distilled water containing 5% dextrose and are administered intraperitoneally on days 1, 5, and 9 relative to tumor implant. Doses are on a mg/kg basis according to individual animals' body weights. The day of death for each animal is recorded, the median identified for each group and the ratios of median survival time for treated (T)/control (C) Groups are calculated. The criterion for activity is T/C×100≥120%.

The nature of data set [5]: LD50 Tests. Conditions: in vivo; IP single dose, CD-1 male mouse. The text has this: |(IP single dose - CD-1 Male Mouse)
The test system of data set [6] is lymphocytic leukemia L1210. In words: Lymphocytic Leukemia L1210 Test. The class given is in vivo, mouse (CD2-F1). The settings on record: median survival; ip days 1, 5, 9; dose: 3C 110, 4C 150 mg/kg; active if >125%.
From the text: as §2
The protocol for this test is identical to that for P388/0, except that the number of L1210 cells implanted on day 0 is […]. The mouse CD2-F1 strain is used, and the criterion for activity is T/C×100 >125%.

Data set [7] deals with Lewis lung carcinoma. The experiment in a line: Lewis Lung Carcinoma Test. Type of data set: in vivo, mouse (BD-F1). Conditions: median survival, iv tumor cells; dosing days 1, 5, 9; dose: 3C 130, 4C 200 mg/kg; active if ≥140%.
From the text: as §2
This tumor arose spontaneously in the lung of a C57B1/6 mouse and is maintained by subcutaneous passage in that strain. The solid tumor is excised aseptically and placed in sterile saline. Pieces of viable tumor tissue are minced finely with scissors and forced through a 200 mesh stainless steel screen to disaggregate the tumor cells into a suspension. 10^6 Viable cells are injected intravenously into the tail vein of BD-F1, mice of the same sex weighing 20±3 g. In each test, several dose levels which bracket the L20 for the compound are evaluated. Ten animals are included in each dose level grup, and twenty animals in the untreated control group. The test compounds are prepared and administered on days 1, 5, and 9 as in the P388/0 protocol. The day of death for each animal is recorded, the median identified for each group and the ratios of median survival time for treated (T)/control (C) groups are calculated. The criterion for activity is T/C×100≥140%.

Data set [8] relates to M5076 sarcoma. The experiment in a line: M5076 Sarcoma Test. The class given is in vivo, mouse (B6C3-F1). Conditions: survival; 110 mg/kg; ip days 1, 5, 9; active if ≥125%.
From the text: as §2
This sarcoma arose as a solid tumor in the ovary of a C57Bl/6 mouse and was subsequently converted to the ascitic form for intraperitoneal use. The protocol for this test is identical with that for P388/0. The B6C3-F1mouse strain is used and the criterion for activity is T/C×100≥125%.

The test system of data set [9] is Colon 38 carcinoma. The experiment in a line: Colon 38 Carcinoma Test. Type of data set: in vivo, mouse (C57Bl/6). Conditions: tumor weight, day 20; 150 mg/kg ip days 1, 5, 9; active if ≤42%.
From the text: as §2
This chemically-induced tumor arose in a C57Bl/6 mouse and is maintained as a solid tumor in that mouse strain. The subcutaneously growing solid tumor is aseptically excised from passage mice and placed in sterile saline. The tumor is trimmed free of visible necrotic and connective tissue, then divided into 2-3 mm cubes. A cube is implanted subcutaneously in the ventral thoracic region with a sterile trochar on day 0. In each test several dose levels which bracket the LD20 for the compound are evaluated. Ten animals are included in each dose level group and thirty animals in the untreated control group. The test compounds are prepared either in physiologic saline containing 0.05% Tween 80 or distilled water containing 5% dextrose and are administered intraperitoneally on days 1, 5 and 9 after tumor implant. […] At day 20, the animals are sacrificed and the longest (L) and shortest (W) dimensions of each tumor measured with vernier calipers. Tumor weight is calculated from the formula [formula] […]

Data set [10] in a line: Lymphocytic Leukemia P388/0 Test. Type of data set: in vivo, mouse (CD2-F1). More on the design: LD20: unit: mg/kg. Conditions: mouse, in vivo; ip days 1, 5, 9; doses on a mg/kg basis; read-out: highest nontoxic dose where the LD20 was not determined (values in parentheses in LD20 column).
From the text: as §2, §3

For data set [11], the system named is Streptococcus pyogenes. In words: Antibacterial testing against Streptococcus pyogenes (CN10). Type of data set: cell-based. Conditions: agar dilution.
From the text: as §1
(In general: In agar dilution the substance is mixed into plates at graded concentrations.)

For “2-(((2-Ethyl-9-anthracenyl)methyl)amino)-2-methyl-1,3-propanediol and 2-(((3-ethyl-9-anthracenyl)methyl)amino)-2-methyl-1,3-propanediol hydrochloride.1/4H2 O [Example 31C]”, in data set [1], the Toxicity result is “Y”.

One may read the MIC as the lowest concentration that inhibits growth of the organism. In general, LD50 refers to the dose at which mortality reaches 50%. Consider `CC(CO)(CO)NCc1c2ccccc2c(Cl)c2ccccc12.Cl` [Example 2A, 2-(((10-chloro-9-anthracenyl)methyl)amino)-2-methyl-1,3-propanediol hydrochloride], for which the MIC in data set [2] (immature - free living stages, read-out: MIC) is ≥ 50 µg/mL. The MIC in data set [3] was found to be 10 µg/mL. Further, in [4], the LD20 stood at 556 and the “T/C × 100% (Excluding 30 Day Survivors)” value is recorded as “+228%”. Besides, the LD50 in [5] came to 250 mg/kg.

With `CSc1c2ccccc2c(CNC(C)(CO)CO)c2ccccc12.Cl` [Example 3B, 2-methyl-2-(((10-methylthio-9-anthracenyl)methyl)amino)-1,3-propanediol hydrochloride], in data set [4], the LD20 amounted to 120 and the “T/C × 100% (Excluding 30 Day Survivors)” value is on record as “+262%”. In [5], this molecule displayed an LD50 of 100 mg/kg.

For the molecule `CSc1c2ccccc2c(CNC(C)(CO)CO)c2ccccc12` [Example 3C, 2-Methyl-2-(((10-methylthio-9-anthracenyl)methyl)amino)-1,3-propanediolmethanesulfonate], the “T/C × 100% Excluding 30 day Survivors” value in [6] is on record as “+194%”. For the same molecule, in [4], the LD20 is given as 70 and the “T/C × 100% (Excluding 30 Day Survivors)” value is “+227%”. For the same molecule, in data set [7], the “T/C × 100% Excluding 60 day Survivors” value is “+145%”. For the same molecule, the “T/C × 100%” value in data set [8] is given as “+132%”.

As for `CC(CO)(CO)NCc1c2ccccc2c(CCCl)c2ccccc12` [Example 4C, 2-(((10-(2-Chloroethyl)-9-anthracenyl)methyl)amino)-2-methyl-1,3-propanediol methanesulfonate], the “T/C × 100%” value in data set [9] amounted to 38%. In data set [6], the “T/C × 100% Excluding 30 day Survivors” value is given as “+217%”. Further, in [4], the LD20 turned out to be 130 and the “T/C × 100% (Excluding 30 Day Survivors)” value was “+218%”. In addition, the “T/C × 100% Excluding 60 day Survivors” value in data set [7] is listed as “+154%”.

`Cc1c2ccccc2c(CNC(C)(CO)CO)c2ccccc12` [Example 7, 2-methyl-2-(((10-methyl-9-anthracenyl)methyl)amino)-1,3-propanediol hydrochloride.1/2H2 O] yielded an MIC in [2] of 50 µg/mL. Also, in data set [4], the LD20 is given as 140 and the “T/C × 100% (Excluding 30 Day Survivors)” value is reported as “+160%”.

In the case of `CC(CO)(CO)NCc1c2cccc(Cl)c2cc2c(Cl)cccc12.Cl` [Example 10B, 2-(((4,5-dichloro-9-anthracenyl)methyl)amino)-2-methyl-1,3-propanediol hydrochloride], the “Zone of Inhibition” value in [1] stood at 32. For the same molecule, in [10], the MTD turned out to be 450 mg/kg. Moreover, in data set [4], the “T/C × 100% (Excluding 30 Day Survivors)” value is reported as “+204%”.

`CC(CO)(CO)NCc1c2ccccc2cc2c(Cl)cccc12.Cl` [Example 11B, 2-(((4-Chloro-9-anthracenyl)methyl)amino)-2-methyl-1,3-propanediol hydrochloride]: the MIC in [11] was ≤ 10 µg/mL. Further, the MIC in [3] was ≤ 10 µg/mL. Also, in data set [4], the LD20 turned out to be 200 and the “T/C × 100% (Excluding 30 Day Survivors)” value is recorded as “+215%”.

In data set [11], `COc1c2ccccc2c(CNC(C)(CO)CO)c2ccccc12.Cl` [Example 13B, 2-(((10-Methoxy-9-anthracenyl)methyl)amino)-2-methyl-1,3-propanediol hydrochloride] had an MIC of 100 µg/mL. Moreover, the minimum inhibitory concentration (MIC) in data set [3] was ≤ 10 µg/mL. In addition, in data set [1], the “Zone of Inhibition” value stood at 40. In addition, in data set [4], the LD20 is on record as 120 and the “T/C × 100% (Excluding 30 Day Survivors)” value was “+220%”.

With `CC(CO)(CO)NCc1c2ccccc2c(Cl)c2cc(Cl)ccc12.Cl` [Example 23, 2-(((3,10-dichloro-9-anthracenyl)methyl)amino)-2-methyl-1,3-propanediol hydrochloride], the MTD in data set [10] stood at 300 mg/kg. For the same molecule, the “T/C × 100% (Excluding 30 Day Survivors)” value in data set [4] was “+210%”.

`CC(CO)(CO)NCc1c2ccccc2c(OCCO)c2ccccc12` [Example 25B, 2-(((10-(2-hydroxyethoxy)-9-anthracenyl)methyl)amino)-2-methyl-1,3-propanediol hydrochloride 1/2H2 O 1/10EtOH]: in data set [4], the LD20 is 67 and the “T/C × 100% (Excluding 30 Day Survivors)” value is “+300%”. The LD50 in data set [5] turned out to be 110 mg/kg.

Turning to `CC(CO)(CO)NCc1c2ccccc2c(S(C)(=O)=O)c2ccccc12.Cl` [Example 26B, 2-Methyl-2-(((10-methylsulfonyl-9-anthracenyl)methyl)amino)-1,3-propanediol hydrochloride], in [10], the MTD was found to be 300 mg/kg. Also, the “T/C × 100% (Excluding 30 Day Survivors)” value in [4] is reported as “+228%”.

As for `CC(CO)(CO)NCc1c2ccccc2c(-n2ccnc2)c2ccccc12` [Example 29B, 2-(((10-(1H-Imidazol-1-yl)-9-anthracenyl)methyl)amino)-2-methyl-1,3-propanediol hydrochloride 11/10 H2 O], the “Zone of Inhibition” value in data set [1] is reported as 32. For the same molecule, in data set [4], the LD20 is given as 100 and the “T/C × 100% (Excluding 30 Day Survivors)” value is given as “+235%”.

As for `CCOCC(CO)(CO)NCc1c2ccccc2cc2ccccc12.Cl` [Example 32C, 2-((9-Anthracenylmethyl)amino)-2-ethoxymethyl-1,3-propanediol hydrochloride], the “Zone of Inhibition” value in data set [1] is recorded as 23.2. Moreover, in data set [4], the LD20 was 625 and the “T/C × 100% (Excluding 30 Day Survivors)” value is “+130%”.

Regarding `COCC(C)(CO)NCc1c2ccccc2cc2ccccc12.Cl` (centres unmarked) [Example 33D, 2-((9-Anthracenylmethyl)amino)-3-methoxy-2-methyl-1-propanol hydrochloride], in data set [1], the “Zone of Inhibition” value came out at 35.

Regarding `Cc1cc2c(Cl)c3ccccc3c(CNC(C)(CO)CO)c2cc1C.Cl` [Example 40B, 2-(((10-Chloro-2,3-dimethyl-9-anthracenyl)methyl)amino)-2-methyl-1,3-propanediol hydrochloride], the MTD in data set [10] was 300 mg/kg. For the same molecule, in data set [4], the “T/C × 100% (Excluding 30 Day Survivors)” value is reported as “+205%”.
